Blank lines part the entries; values can stand above or below the molecule they belong to. Where a SMILES comes first, the peptide text is derived from it. Where no end group is shown, it is not given here. The star is where a group is joined. Cbz = O=C(OCc1ccccc1)*
Key:
(pro)renin receptor = conditions: cited from earlier work
[1] = target: T1, renin (NRK-52E cell nuclei) (Rattus norvegicus, UniProt P08424); test: Renin activity assay in nuclear lysate of NRK-52E cells; format: biochemical; conditions: basal (control) nuclear lysate, aliskiren 1 μM, 37°C, 90 min; n = 3 passages
T1 sequence (P08424 65-402): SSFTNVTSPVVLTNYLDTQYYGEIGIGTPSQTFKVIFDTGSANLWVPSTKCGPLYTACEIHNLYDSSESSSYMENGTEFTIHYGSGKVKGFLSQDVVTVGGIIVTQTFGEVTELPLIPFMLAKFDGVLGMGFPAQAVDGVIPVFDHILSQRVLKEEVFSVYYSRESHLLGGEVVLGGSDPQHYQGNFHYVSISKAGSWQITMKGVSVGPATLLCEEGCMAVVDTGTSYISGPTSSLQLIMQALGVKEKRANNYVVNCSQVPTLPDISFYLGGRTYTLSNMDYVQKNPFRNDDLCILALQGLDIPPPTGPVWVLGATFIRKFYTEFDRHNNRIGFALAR

[2] = pH 7.4
[3] = dose higher than the maximal recommended dose for heart failure and hypertension; without a further decline in blood pressure; cited from earlier work
[4] = system: Ang I to Ang-(1–7) converting peptidase activity in isolated nuclei from NRK-52E cells; test: Peptide metabolism: generation of Ang-; format: biochemical, rat; conditions: 37°C, 125I-Ang I 0.5 nM; SCH39370 10 μM, ZPP 50 μM; HPLC with γ detector

- Reduction of nuclear renin activity [1]: 83%
Molecule: COCCCOc1cc(C[C@@H](C[C@H](N)[C@@H](O)C[C@H](C(=O)NCC(C)(C)C(N)=O)C(C)C)C(C)C)ccc1OC [aliskiren]
- Effect on binding of (pro)renin to the receptor ((pro)renin receptor): do not block

- Half-life in nuclear cell extracts [2]: 1.22 h
Molecule: DRVYIHPFHL [Ang I]

Molecule: CCOc1nc2cccc(C(=O)O)c2n1Cc1ccc(-c2ccccc2-c2nnn[nH]2)cc1 [candesartan]
- Effect on persistent proteinuria [3]: significantly reduced

Molecule: O=C(O)C(O)CNC(=O)[C@H](Cc1ccccc1)NC(CCc1ccccc1)C(=O)O (stereo partly drawn) [SCH39370]
- Effect on generation of Ang-(1–7) in the nuclear extract [4]: did not block

Molecule: O=C[C@@H]1CCCN1C(=O)[C@@H]1CCCN1C(=O)OCc1ccccc1 [ZPP, Z-prolyl prolinal] (Cbz-Pro-Pro-aldehyde)
- Effect on generation of Ang-(1–7) in the nuclear extract [4]: did not block

Reference: article PMC4276551 (Journal of the renin-angiotensin-aldosterone system : JRAAS, 2014)
